Results taken from patent US20240279612A1, “LIVER ORGANOID MANUFACTURING METHODS, LIVER ORGANOIDS OBTAINED WITH THE SAME, AND USES THEREOF” (INSTITUT NATIONAL DE LA SANTÉ ET DE LA RECHERCHE MÉDICALE, priority 2021, published 2024).
Read-outs that look alike come from different tables or passages of the source.

Columns and labels:
CYP2B6 = experiment: Induction of CYP2B6 activity (bupropion to hydroxybupropion, LC-MS/MS) in PHH; settings: PHH model, versus basal (DMSO 0.1%)
Method: (§1) The primary human hepatocyte (PHH) cell line was obtained from four different healthy donors. PHH cells culture was performed according to the LONZA protocol (described in Document #BR-CryoHep-1 07/20 www.bioscience.lonza.com © 2020 Lonza Walkersville, Inc) with cell seeding at 70,000 cells/well in collagen I-coated 96-well plates (Corning® BioCoat™ Collagen I 96 Clear Well Plate). One hour after seeding, the PHH cells were cultured by the Sandwich method using Matrigel (Corning® Matrigel® Matrix) according to the protocol described in Gijbels et al. (Experimental Cholestasis Research, 2019). PHH cells were used 3 days later (short duration) or 2 weeks later (long duration) for the experiments. PHH cell line was cultivated at 37° C. in a humidified atmosphere with 5% CO2.
(§2) PHH and LO grown in 96-well plates were treated by adding 200 μl/well and HLCs in 6-well plates by adding 1 ml/well of CYP's inductors in a hepatocyte culture medium (HCM) without EGF (Lonza—CC-3198).
(§3) CYPs were induced by different types of inducers (SIGMA) at different concentrations for 3 days (as detailed in TABLE 3): Omeprazole (50 μM), Rifampicin (10 μM), Imidazole (500 μM), Phenobarbital (500 μM) and CITCO (1 μM). A control condition (namely “basal”) is performed with DMSO […] instead of inducer. […]

liver organoid (LO) [1] = settings: 48 h
Method: Steatosis was induced by amiodarone at 20 μM or ethanol at […] for 2 days after the end of differentiation (Day 28). After fixation of the cells with paraformaldehyde (PFA 4% in PBS) for 15 minutes at room temperature, the lipids were labelled with Nile Red (50 ng/ml) for 1 hour at room temperature and then washed three times with PBS (1000 μl). At this step, samples can be stored in PBS at 4° C.
(§4) After the acquisition of different Z-stacks of the LOs, the images were analyzed and quantified by the image analysis software Metaxpress developed by Molecular Devices.

liver organoid (LO) [2] = experiment: Internalization of LDL-bodipy by liver organoids; assay type: cell-based, human; settings: 20 hours, then 3 hours LDL-bodipy, compared to controls (FIG. 2)
Method: Treatment with mevastatin (20, 25 and 30 μg/ml) or DMSO (0.1%) was performed for 20 hours after the end of differentiation (Day 28). After treatment, LOs were incubated with LDL-bodipy (Invitrogen, Ref: L3483) for 3 hours (INVITROGEN). Finally, once the incubation with LDL-bodipy was completed, the scaffolds were washed three times with HCM medium (LONZA) at 37° C. and then the cells were fixed with paraformaldehyde (PFA 4% in PBS) for 15 minutes at room temperature. At this stage, the samples can be stored in PBS at 4° C.
as §4
Concerning LDL internalization, it was noted that the LO model significatively reacted to mevastatin at concentrations of 20, 25 and 30 ug/ml with an increase in LDL-bodipy internalization of 14, 18 and 26% respectively compared to controls (FIG. 2).

CYP1A2 = experiment: Induction of CYP1A2 activity (phenacetin to acetaminophen, LC-MS/MS) in PHH; assay type: in vitro ADME, human; settings: PHH model, omeprazole 50 μM for 3 days, versus basal (DMSO 0.1%)
Method: as §1, §2, §3

## Clc1ccc(-c2nc3sccn3c2/C=N/OCc2ccc(Cl)c(Cl)c2)cc1 [CITCO]
CYP2B6; CITCO 1 μM for 3 days
  induction of CYP2B6: 3.3 times

## CCCCc1oc2ccccc2c1C(=O)c1cc(I)c(OCCN(CC)CC)c(I)c1 [amiodarone]
Liver organoid (LO) [1]; 40 µM
  increase in lipid accumulation: 60%

## CCO [ethanol]
Liver organoid (LO) [1]; 0.1 µM
  increase in lipid accumulation: 29%

## CC[C@H](C)C(=O)O[C@H]1CCC=C2C=C[C@H](C)[C@H](CC[C@@H]3C[C@@H](O)CC(=O)O3)[C@H]21 [mevastatin]
Liver organoid (LO) [2]; mevastatin 20 ug/ml
  increase in LDL-bodipy internalization: 14%
Liver organoid (LO) [2]; mevastatin 25 ug/ml
  increase in LDL-bodipy internalization: 18%
Liver organoid (LO) [2]; mevastatin 30 ug/ml
  increase in LDL-bodipy internalization: 26%

## COc1ccc2[nH]c([S+]([O-])Cc3ncc(C)c(OC)c3C)nc2c1 (centres unmarked) [omeprazole, Omeprazole]
CYP1A2
  induction of CYP1A2: 7.2 times

## CCC1(c2ccccc2)C(=O)NC(=O)NC1=O [phenobarbital, Phenobarbital]
CYP2B6; phenobarbital 500 μM for 3 days
  induction of CYP2B6: 5.8 times
